Data taken from US8846619B2, “Artificial oxygen transport protein” (The Trustees of the University of Pennsylvania, priority 2009, dated 2014).
Substitutions are numbered along the chain they refer to. Where two headings read alike, the source gives them in different places. Ends that are not written are not given here.

Legend:
[1] = literature value, cited from earlier work
[2] = literature value, cited from earlier work; remark: listed apart in the source
[3] = Heme binding to the constructs; conditions: two-heme variants, read-out: heme binding affinities
[4] = O2 binding kinetics and oxy-ferrous heme formation/stability (stopped-flow; low-temperature CO/O2 ligand exchange); conditions: for stabilization of the oxy-ferrous heme: effect of loop configuration; for oxy-ferrous heme yield: −15° C., exposed to CO, then illuminated to exchange ligand for O2; for O2 binding / oxy-ferrous heme formation (in words): reduced (ferrous) heme protein with O2
Procedure: (§1) Predominantly mono-exponential binding kinetics of O2 and CO with the ferrous heme B in Construct 6 were followed spectroscopically in rapid stopped-flow mixing over gas concentrations from 2% to 50% saturation at 15° C. using an Olis RSM 1000 spectrometer (Bogart, Ga.) that scans both the alpha band and Soret band absorptions 1,000 times a second, followed by SVD analysis of the kinetic components. The dissociation rate of the CO complex was determined by competition with ferricyanide using a range of ferricyanide concentrations according to the ferric heme trapping method described previously.
Preparations of ferrous heme synthetic proteins in CO saturated 30% ethylene glycol borate buffer at pH 9.0 were stable to ligand exchange on a timescale of several minutes in the dark at −15° C. This allowed spectra such as those shown in FIG. 2 to be prepared by re-equilibration with O2 or O2/CO gas mixtures, followed by photolysis by halogen lamp illumination for several seconds to initiate rapid O2 binding, as described previously.
In fact, none of the artificial hemes proteins examined above were able to bind this gas stably at room temperature. […] Constructs 2, 3, 4 and 5 all include the glutamate-based helical strain, which weakens the histidine ligation and allows competition from other ligands. By first exposing these heme proteins to CO and then illuminating at a low temperature to initiate ligand exchange for O2, as was done previously with cytochrome oxidase, each formed an oxy-ferrous heme at near 100% yield at −15° C. The probable reason for room temperature instability was the access of water and protons to the heme-binding site, which facilitates electron transfer from ferrous heme to oxygen. This is clear from mutant studies of globins and the relative stability of the oxy-ferrous heme in chemical systems in water-free solvents.

[5] = Hydrogen isotope (H/D) exchange protection by NMR; type: physicochemical; conditions: pH 7 and 25° C.
Excerpt: To engineer water exclusion, the potentially culpable protein motion was constrained. […] Indeed, Construct 2 could be modified to introduce large-scale syn-anti flipping. To constrain motion, the loops were reconfigured to link the helices across the most mobile interface. This also allowed the loops to be linked into a monomeric “candelabra” structure, further constraining motion (Construct 6 in FIG. 1). NMR confirmed the water-restricting effects of loop reconfiguration and monomerization. Hydrogen isotope (H/D) analysis of hydrogen exchange protection factors of Constructs 4 and 6 at pH 7 and 25° C.

[6] = Potentiometric titration (oxidation-reduction midpoint potential); type: physicochemical
[7] = CO binding and release kinetics (stopped-flow mixing, flash photolysis, ferricyanide competition); conditions: stopped-flow with CO
Procedure: as §1
CO rebinding after photolysis by a frequency-doubled YAG laser at 532 nm, with a ˜1-ns pulse width (FIG. 3C), was multi-exponential, a characteristic signature of human neuroglobins. Detailed analysis of time-resolved spectra in the flash experiments was consistent with a rapid exponential phase due to a change in pentacoordinate heme conformation (FIG. 3B), similar to that reported for myoglobin [46]. […]
Saturation of the observed CO binding rate allowed estimates of the opening and closing rates. […] Table 1 presents the kinetic constants (also shown in FIG. 3A) and equilibrium binding constants that have been determined for Construct 6 and contrasts them with several natural oxygen-binding proteins. […]

[8] = heme B, cited from earlier work
[9] = literature value; cited from earlier work
[10] = not in parentheses, read-out: KdCO
[11] = not in parentheses, read-out: KdO2

What does the source list for Myoglobin?
kCO off [1]: 0.019 s⁻¹; kCO on ([1]; not in parentheses): 500000 M⁻¹ s⁻¹; Kd [1, 10]: 37 nM; kO2 off [2]: 12 s⁻¹; KdO2/KdCO ([2]; not in parentheses): 23; kO2 on ([2]; not in parentheses): 1.4e+07 M⁻¹ s⁻¹; Kd [2, 11]: 860 nM

For “CGGGEIWKQFEEALKKLFAFFFILPFIIMAIAMVHLLFLFGEGL [Construct 15, AP6 with histidines at positions 10 and 21 mutated to phenylalanine]”, which Kd ([3]; tighter site) is on record?
Its Kd is 100 nM.

And the Kd ([3]; weaker site)?
The Kd was 4500 nM.

Which kCO off [1] does the source give for Micro-peroxidase here?
The kCO off was 0.01 s⁻¹.

What about the kCO on ([1]; not in parentheses) of the same molecule?
Its kCO on is 2e+07 M⁻¹ s⁻¹.

And the Kd [1, 10]?
Its Kd is 0.5 nM.

With Ascaris haemoglobin as the molecule, how does the kCO off [1] read?
The kCO off was 0.018 s⁻¹.

And the kCO on ([1]; not in parentheses)?
Its kCO on is 200000 M⁻¹ s⁻¹.

And the Kd [1, 10]?
The Kd was 90 nM.

What about the kO2 off [2] of the same molecule?
The kO2 off was 0.004 s⁻¹.

What about the KdO2/KdCO ([2]; not in parentheses) of the same molecule?
Its KdO2/KdCO is 0.03.

And the kO2 on ([2]; not in parentheses)?
The kO2 on was 1.5e+06 M⁻¹ s⁻¹.

And the Kd [2, 11]?
The Kd was 3 nM.

With Human haemoglobin as the molecule, how does the kCO off [1] read?
The kCO off was 0.009 s⁻¹.

What about the kCO on ([1]; not in parentheses) of the same molecule?
Its kCO on is 2.2e+06 M⁻¹ s⁻¹.

And the Kd [1, 10]?
The Kd was 4 nM.

What about the kO2 off [2] of the same molecule?
The kO2 off was 15 s⁻¹.

And the KdO2/KdCO ([2]; not in parentheses)?
Its KdO2/KdCO is 190.

What about the kO2 on ([2]; not in parentheses) of the same molecule?
The kO2 on was 1.9e+07 M⁻¹ s⁻¹.

And the Kd [2, 11]?
Its Kd is 770 nM.

For “Construct 5: cystine derivative of SEQ ID NO:9 (CGGGEIWKQHEDALQKFEDALNQFEELKQL; also: cystine derivative)”, which “stabilization of the oxy-ferrous heme” value [4] is on record?
Its value is “not to be stabilized”.

What about the oxy-ferrous heme yield [4] of the same molecule?
The oxy-ferrous heme yield was ~100%.

With “Construct 2: cystine derivative of SEQ ID NO:6 (CGGGELWKLHEELLKKFEELLKLHEERLKKL; also: cystine derivative)” as the molecule, how does the “O2 binding / oxy-ferrous heme formation (in words)” value [4] read?
Its value is “proceeded directly and rapidly to the oxidized form”.

And the oxy-ferrous heme yield [4]?
The oxy-ferrous heme yield was ~100%.

With “CGGGEIWKQHEEALKKLFAFFFILPFIIMAIAMVFLLFLFGEGL [Construct 13]” as the molecule, how does the “O2 binding / oxy-ferrous heme formation (in words)” value [4] read?
Its value is “able to bind O2”.

What about the Kd ([3]; tighter site) of the same molecule?
The Kd was 50 to 200 nM.

And the Kd ([3]; weaker site)?
Its Kd is 1000 to 4000 nM.

For “Construct 4: cystine derivative of SEQ ID NO:8 (CGGGEIWKQHEEALKKFEEALKQFEELKKL; also: cystine derivative)”, which oxy-ferrous heme yield [4] is on record?
The oxy-ferrous heme yield was ~100%.

What about the “time to complete water-mediated proton exchange” value [5] of the same molecule?
The value was ≤ 15 min.

Which oxy-ferrous heme yield [4] does the source give for “Construct 3: cystine derivative of SEQ ID NO:7 (CGGGEIWKLHEEFLKKFEELLKLHEERLKKL; also: cystine derivative)” here?
The oxy-ferrous heme yield was ~100%.

What does the source list for “CGGGEIWKQFEEALKKLFAFHFILPFIIMAIAMVFLLFLFGEGL [Construct 14, AP6 with histidines at positions 10 and 35 mutated to phenylalanine]”?
Kd ([3]; tighter site): 200 to 500 nM; Kd ([3]; weaker site): 1000 to 3000 nM

B1: Construct 7: SEQ ID NO:11; single chain four-helix bundle peptide (protein)
chain: GMTPEQIWKQHEDALQKFEDALNQFEELKQLGGSGSGSGGEIWKQHEDALQKFEDALNQFEELKQLGGSGGSGGSGGEIWKQHEDALQKFEDALNQFEELKQLGGSGSGSGGEIWKQHEDALQKFEDALNQFEELKQL
With B1 as the molecule, how does the “O2 binding / oxy-ferrous heme formation (in words)” value [4] read?
The value was “retained the O2 binding functionality of Construct 6”.

B2: Construct 10: SEQ ID NO:14; single chain four-helix bundle with CXXCH insert, covalently bound heme C (protein)
chain: B1 chain with W43C, Q45C
modifications: covalently bound heme C
Which “O2 binding / oxy-ferrous heme formation (in words)” value [4] does the source give for B2 here?
The value was “bound molecular oxygen”.

What about the “Em (midpoint potential)” value ([6]; covalently bound c-type heme, pH 9) of the same molecule?
Its value is −232 mV.

B3: Construct 6: cystine derivative of SEQ ID NO:1; four-helix bundle oxygen transport protein (protein)
chain: GEIWKQHEDALQKFEEALNQFEDLKQLGGSGCGSGGEIWKQHEDALQKFEEALNQFEDLKQL
modifications: cystine derivative
notes: four-helix bundle oxygen transport protein
For B3, which “half time of carboxy-ferrous heme formation” value [7] is on record?
Its value is 400 ms.

And the “stability of carboxy-ferrous heme species” value [7]?
Its value is “indefinitely stable”.

What about the “O2 on-rate compared with human neuroglobin” value [4] of the same molecule?
The value was ~100 times slower.

What about the “net discrimination favoring O2 binding over CO binding” value [4] of the same molecule?
Its value is “tenfold”.

And the “stabilization of the oxy-ferrous heme” value [4]?
Its value is “stabilized by looping together helices not linked by heme”.

What about the “persistence of oxy-ferrous heme A before electron transfer” value ([4]; heme A) of the same molecule?
The value was “about half a minute”.

What about the “duration of stability of the oxy-ferrous state” value ([4]; heme B, before electron transfer from ferrous heme to O2) of the same molecule?
Its value is “tens of seconds”.

And the “O2 binding / oxy-ferrous heme formation (in words)” value [4]?
The value was “transformation of the reduced heme to the oxy-ferrous state”.

And the “oxidation-reduction midpoint potential at pH 8 (Em8)” value ([6]; bound heme A, pH 8, versus normal hydrogen electrode (NHE))?
The value was −100 mV.

And the “Em8 of bound heme A more positive than heme B” value ([6]; heme A versus heme B)?
The value was “about 200 mV”.

And the “timescale of exchange of core residue backbone amides” value [5]?
Its value is “several hours”.

And the Kd ([8]; first heme, read-out: dissociation constant (Kd) for binding of the first heme)?
The Kd was < 1 nM.

And the Kd ([8]; second heme, read-out: dissociation constant (Kd) for binding of the second heme)?
Its Kd is 50 nM.

B4: Neuroglobin (protein, UniProt Q9NPG2 1-151, looked up)
Neuroglobin: MERPEPELIRQSWRAVSRSPLEHGTVLFARLFALEPDLLPLFQYNCRQFSSPEDCLSSPEFLDHIRKVMLVIDAAVTNVEDLSSLEEYLASLGRKHRAVGVKLSSFSTVGESLLYMLEKCLGPAFTPATRAAWSQLYGAVVQAMSRGWDGE
Which kCO off [1] does the source give for B4 here?
The kCO off was 0.014 s⁻¹.

What about the “kCO on (apparent)” value ([1]; in parentheses: apparent) of the same molecule?
The value was “(0.15) μM^−1s^−1”.

What about the Kd ([1]; in parentheses: apparent, read-out: KdCO (apparent)) of the same molecule?
Its Kd is 93 nM.

And the kCO on ([1]; not in parentheses)?
Its kCO on is 6.5e+07 M⁻¹ s⁻¹.

What about the Kd [1, 10] of the same molecule?
The Kd was 0.21 nM.

And the kO2 off [2]?
The kO2 off was 0.8 s⁻¹.

And the “KdO2/KdCO (apparent)” value ([2]; in parentheses: apparent)?
The value was “(15)”.

And the “kO2 on (apparent)” value ([2]; in parentheses: apparent)?
Its value is “(0.56) μM^−1s^−1”.

What about the Kd ([2]; in parentheses: apparent, read-out: KdO2 (apparent)) of the same molecule?
Its Kd is 1400 nM.

And the kO2 on ([2]; not in parentheses)?
The kO2 on was 2.5e+08 M⁻¹ s⁻¹.

What about the Kd [2, 11] of the same molecule?
The Kd was 3.2 nM.

What about the kHis off [9] of the same molecule?
Its kHis off is 4.5 s⁻¹.

What about the kHis on [9] of the same molecule?
Its kHis on is 2,000 s^−1.
